Source: paper PMC10267362, “Boron-peptide conjugates with angiopep-2 for boron neutron capture therapy” (Frontiers in Medicine, 2023)

Columns and labels:
[1] = tested on: HS683 intracranial glioma; assay: In vivo BNCT in intracranial glioma mouse model, 18F-FDG PET/CT; settings: for SUV (18F-FDG uptake) in tumour tissues after BNCT, compared to control group: PET/CT, p < 0.05
Method: The glioma mouse model was established as reported recently ([16]). HS683 cells were transfected with luciferase-expressing vector (Lenti-UTR-Luc-Blank Vector; Promega). BALB/c nude mice were anesthetized by intraperitoneal injection of tribromoethanol (150 mg/kg) and then placed in a stereotaxic instrument. A hole was made in the mouse skull and 5 μL of HS683 cell suspension (2 × 10^7 cells/mL) was injected into the brain using the stereotaxic instrument. The growth state of glioma tumours in mice was monitored by bioluminescent imaging (IVIS 3D Perkin Elmer). Animal experiments were performed according to the protocols approved by the Animal Use Review Board and Ethical Committee of Shenzhen Bay Laboratory (permit no. AFRQS202101).
During BNCT, five mice per group were injected with 2.5 mM/kg of BPA (5% fructose solution) or ANG-B solution through the tail vein. 90 min later, mice were anesthetized with an intraperitoneal injection of tribromoethanol at a dose of 150 mg/kg and then fixed in a mould for BNCT irradiation of the mouse head using a published method ([16]). Mice were treated with 2 kW of neutron flux for 2 h each time and four times for each mouse in 1 week, to achieve a total neutron flux of 12.5 ± 0.5 × 10^11 n/cm^2. Mice were anesthetized with 2% isoflurane at 25°C and imaged with PET/CT (nanoSCAN, Mediso) with 1.5 uCi/g ^18F-FDG at 1 day before or 31 days after BNCT. Image processing and analyses were performed by AMIDE (RRID: SCR_005940), where ROI, SUV values, and tumour volume were determined.
The glioma mouse model was further used in BCNT tests for ANG-B. The body weight of all the used mice was monitored during the whole process, where no obvious health issues with body weight loss were noticed (Supplementary Figure S6A). PET imaging is usually used to evaluate therapeutic response of glioma patients or mouse models ([16], [21], [22]). Therefore, we employed ^18F-FDG-based PET/CT to estimate intracranial tumour volume for each mouse 1 day before and 31 days after BNCT treatments (Figure 4A). An additional lower concentration of ANG-B at 1 mM/kg (i.e., ANG-B low) was included for comparison.

HS683 cells [2] = assay: Clonogenic cell survival assay after BNCT (thermal neutron irradiation) in vitro; format: cell-based, human; settings: 5 mM drug for 12 h, neutron flux 3.0 ± 0.4 × 10^11 n/cm^2 in 2 h, colonies after 2 weeks, mean ± SD, three biological repeats
Method: Thermal neutron radiation was given as described previously ([16]). A high-current proton beam (3.5 MeV) generated from a radio frequency quadrupole (RFQ) accelerator at the China Spallation Neutron Source was used to bombard a lithium target and produce thermal neutrons (0.5 eV-10 keV) for BNCT.
HS683 cells (10^6/sample) were prepared in centrifuge tubes (1.5 mL, Eppendorf) and treated with ANG-B, TAT-B, T7-B, or BPA at various concentrations (0.0–5.0 mM) for 12 h. Epithermal neutrons were given with a total neutron flux of 3.0 ± 0.4 × 10^11 n/cm^2 given in 2 h. The drug-containing medium was then washed off and desirable numbers of cells in single-cell suspension were seeded into 6-well plates to grow colonies in 2 weeks. Colonies were fixed in 70% ethanol at room temperature for 10 min, and stained with 0.1% crystal violet. Colonies with more than 50 cells were scored as clonogenic survivors.
BNCT eliminates cancer cells by heavy charged particle rays, where reproductive cell death plays a vital role in the treatment outcome ([17], [18]). Here we employed the clonogenic survival assay to analyze the reproductive cell death of glioma cells after BNCT treatment in vitro. To guarantee the performance of BNCT in vitro, we designed and manufactured a tube-holding device for thermal neutron irradiation of cells (Figure 2A). BNCT with these boron delivery agents were tested on HS683 cells. […] BNCT with 5 mM ANG-B caused 86.5% ± 5.3% of clonogenic cell death. […] Therefore, ANG-B was selected for the following in vivo study.

[3] = Boron biodistribution in intracranial glioma mouse model (ICP-AES); format: in vivo
Method: The glioma mouse model was established as reported recently ([16]). HS683 cells were transfected with luciferase-expressing vector (Lenti-UTR-Luc-Blank Vector; Promega). BALB/c nude mice were anesthetized by intraperitoneal injection of tribromoethanol (150 mg/kg) and then placed in a stereotaxic instrument. A hole was made in the mouse skull and 5 μL of HS683 cell suspension (2 × 10^7 cells/mL) was injected into the brain using the stereotaxic instrument. The growth state of glioma tumours in mice was monitored by bioluminescent imaging (IVIS 3D Perkin Elmer). Animal experiments were performed according to the protocols approved by the Animal Use Review Board and Ethical Committee of Shenzhen Bay Laboratory (permit no. AFRQS202101). After treatment with boronated peptides or BPA (HEC Pharm, Dongguan, China), boron concentrations in human cells or mice tissues were measured by inductively coupled plasma atomic emission spectroscopy (abbr., ICP-AES; Leeman’s Prodigy 7) using published methods ([16]). Proper microenvironmental components are critical for the treatment response of glioma ([19], [20]). Thus, we constructed an intracranial mouse glioma model based on HS683 cells and a research plan based on this model for testing ANG-B effects (Figure 3A). In order to monitor the intracranial tumour growth, we used luciferase-expressing cells for this mouse model (Supplementary Figure S5A). Boron biodistribution was examined at the time point for thermal neutron irradiation. 2.5 mM/kg of ANG-B or BPA (in 5% fructose solution) was injected into mice, and tissues or organs from the tumour, blood, brain, lung, liver, heart, spleen, and kidney were then collected at indicated time points for measuring boron concentrations (Supplementary Figure S5B). […] At 4 h after drug injection, the T/N ratio of ANG-B was 5.61 ± 1.0 and the T/B ratio was 9.42 ± 2.47.

[4] = tested on: HS683 intracranial glioma; assay: TUNEL apoptosis assay in mouse tumours after BNCT; format: in vivo; settings: 1 day or 7 days after treatment
Method: DNA fragmentation in apoptosis induced by BNCT was assessed using the one-step TUNEL apoptosis assay kit following the manufacturer’s protocol (Abbkine Scientific Co., Ltd., China).
In order to evaluate the ^18F-FDG uptake in tumour tissues under different treatment conditions, SUV data were calculated based on a reference region ([23]). […] Based on the 3D PET image data, we also estimated tumour volume before and after BNCT treatment for each mouse (Figure 4B). […] By contrast, tumour size in the control group kept increasing.
Supplementary Figure 6. In vivo effects of ANG-B based BNCT. (A) Body weight of glioma mouse model after treatment. (B) SUVmax analyses (indicating of FDG uptake) of glioma tumors in PET/CT imaging before and after BNCT treatment. (C) Apoptotic cells in tumor at 1 day or 7days after ANG-B based BNCT treatment as measured by TUNEL assay. Mann–Whitney U test; *p < 0.05.

HS683 cells [5] = assay: Boron uptake in cells by ICP-AES; format: cell-based, human; settings: 0–0.8 mM for 12 h, p < 0.05
Method: (§1) Cell lines established from human glioma (U87MG, U251, and HS683), melanoma (A375), non-small cell lung cancer (A549), and hepatocellular carcinoma (HepG2) were obtained from the National Infrastructure of Cell Line Resource in China, authenticated, and cultured in DMEM, supplemented with 10% fetal bovine serum (HyClone) and 100 IU/mL penicillin/streptomycin (all Sigma-Aldrich unless otherwise noted). Cells were routinely tested for mycoplasma using the Mycoplasma Test Kit (Cellorlab, China). All cells were maintained in a humidified incubator at 5% CO2 and 37°C after defrosting and cultured in the exponential growth phase before each experiment.
(§2) After treatment with boronated peptides or BPA (HEC Pharm, Dongguan, China), boron concentrations in human cells or mice tissues were measured by inductively coupled plasma atomic emission spectroscopy (abbr., ICP-AES; Leeman’s Prodigy 7) using published methods ([16]).
(§3) An efficient boron delivery agent should enhance boron uptake in cancer cells. Thus, we analyzed boron concentrations on 6 human cancer cell lines derived from glioma (U87MG, U251, and HS683), melanoma (A375), non-small cell lung cancer (A549), or hepatocellular carcinoma (HepG2) after treatment with various concentrations of ANG-B, TAT-B, or T7-B for 12 h. BPA was tested in parallel for comparison.
(§4) Figure 1 Boron concentrations in 6 human cell lines derived from glioma (U87MG, U251, and HS683), melanoma (A375), non-small cell lung cancer (A549), or hepatocellular carcinoma (HepG2). Cells were pre-exposed to 0–0.8 mM of ANG-B, TAT-B, T7-B, or BPA for 12 h. Boron concentrations were then analyzed by ICP-AES in HS683 (A), U251 (B), U87MG (C), A375 (D), HepG2 (E), or A549 cells (F). Mean values with standard errors are shown.

HepG2 cells = assay: Boron uptake in cells by ICP-AES; format: cell-based, human; settings: 0–0.8 mM for 12 h, p < 0.05
Method: as §1, §2, §3, §4

A375 cells = assay: Boron uptake in cells by ICP-AES; format: cell-based, human; settings: A375 cells (printed A357), 0–0.8 mM for 12 h, p < 0.05
Method: as §1, §2, §3, §4

[6] = melanoma patients; cited from earlier work
Description: Boron delivery agent is one of the critical factors limiting the expansion of BNCT application in cancer treatment. An ideal boron delivery agent should be low toxicity, high tumour uptake, quick blood clearance, T/N ratio > 3, and low accumulation in healthy tissues. Unfortunately, no existing boron delivery agents can fulfil all these requirements. Historically, BPA is the most popular boron delivery agent in clinical BNCT. Cancer cells usually promote cellular amino acid transport and result in increased uptake of BPA, especially in melanoma cells ([27]). A study evaluated the biodistributi ...

U87MG cells = assay: Boron uptake in cells by ICP-AES; format: cell-based, human; settings: 0–0.8 mM for 12 h
Method: as §1, §2, §3, §4

[7] = 4 h after tail-vein injection of 2.5 mM/kg, intracranial HS683 glioma mice, ICP-AES, three mice per group
[8] = glioma mouse model, 2.5 mM/kg in 5% fructose solution, time not stated

Molecule	SUV (18F-FDG uptake) in tumour tissues after BNCT, compared to control group ([1]; 1 mM/kg (ANG-B low))	tumour volume at 31 days after BNCT treatment ([1]; 2.5 mM/kg, 18F-FDG PET imaging before and after BNCT)	SUV (18F-FDG uptake) in tumour tissues after BNCT, compared to control group ([1]; 2.5 mM/kg)	clonogenic cell death after BNCT (HS683 cells [2])	glioma-targeting effects and blood clearance compared with BPA ([3]; 2.5 mM/kg tail vein, 1, 2, 4 or 6 h, glioma mouse model)	Tumour/blood (T/B) ratio of boron [3, 7]	Tumour/normal (T/N) tissue ratio of boron [3, 7]	apoptotic cells in mouse tumours after BNCT [4]	boron uptake compared with BPA (HS683 cells [5])	boron uptake compared with BPA (HepG2 cells)	boron uptake compared with BPA (A375 cells)	T/N ratio [6]	skin-to-blood ratio [6]	T/B ratio of boron [3, 8]	T/N ratio of boron [3, 8]	boron uptake compared with boronated peptides (U87MG cells)
TFFYGGSRGKRNNFKTEEYC [ANG-B, N-terminal boron-containing derivative of angiopep-2 with 10B-4-carboxyphenylboronic acid at N terminus and cysteine at C terminus]	significantly decreased SUV	significantly decreased tumour volume	significantly decreased SUV	86.5% ± 5.3%	significantly better	9.42 ± 2.47	5.61 ± 1.0	more apoptotic cells	significantly more boron uptake than BPA	significantly more boron uptake than BPA	significantly more boron uptake than BPA					
N[C@@H](Cc1ccc([10B](O)O)cc1)C(=O)O [BPA, ^10B-p-boronophenylalanine, reference compound]			significantly decreased SUV	73.3% ± 6.0%								3.40	1.31	approximately 2	approximately 2	took up more BPA
MASMTGGQQMG [T7-B, boron-peptide conjugate used as control]				54.5% ± 1.1%												
